From ChEMBL document CHEMBL1201862, “PubChem BioAssay data set” (2004)
Where a name gives a salt, the structure may show the parent alone.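 Compound exposure: 48 hours, 5 concentrations, 96-well plates. GI50 marks 50% less growth.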 Active and inactive are the calls of the source. No stated cut-off is given here; in the data, active = GI50 up to about 1.1 µM and inactive = higher.

Key:
Assay in all cases: growth of human tumour cells (NCI), 48 h
A549 = tested on: A549
CAKI-1 = tested on: CAKI-1
CCRF-CEM = tested on: CCRF-CEM
DU-145 = tested on: DU-145
HCT-15 = tested on: HCT-15
HL-60 = tested on: HL-60
MDA-MB-231 = tested on: MDA-MB-231
MDA-MB-435 = tested on: MDA-MB-435
MOLT-4 = tested on: MOLT-4
Malme-3M = tested on: Malme-3M
NCI-H226 = tested on: NCI-H226
NCI-H23 = tested on: NCI-H23
NCI/ADR-RES = tested on: NCI/ADR-RES
OVCAR-8 = tested on: OVCAR-8
SF-268 = tested on: SF-268
SK-OV-3 = tested on: SK-OV-3
SN12C = tested on: SN12C
SR = tested on: SR
T47D = tested on: T47D
UO-31 = tested on: UO-31

SMILES	GI50 (A549)	GI50 (CAKI-1)	GI50 (CCRF-CEM)	GI50 (DU-145)	GI50 (HCT-15) [µM]	GI50 (HL-60)	GI50 (MDA-MB-231)	GI50 (MDA-MB-435)	GI50 (MOLT-4)	GI50 (Malme-3M)	GI50 (NCI-H226)	GI50 (NCI-H23)	GI50 (NCI/ADR-RES)	GI50 (OVCAR-8)	GI50 (SF-268)	GI50 (SK-OV-3)	GI50 (SN12C)	GI50 (SR)	GI50 (T47D)	GI50 (UO-31)
COc1ccc(OC)c2c(=S)c3ccccc3[nH]c12	> 100 µM (inactive)	> 100 µM (inactive)	35.3 µM (inactive)	> 100 µM (inactive)	47.5	25.3 µM (inactive)	> 100 µM (inactive)	71.3 µM (inactive)	39.4 µM (inactive)	84.9 µM (inactive)	> 21.5 µM (inactive)	99.8 µM (inactive)	> 100 µM (inactive)	> 73.5 µM (inactive)	> 86.1 µM (inactive)	> 100 µM (inactive)	> 100 µM (inactive)	49.5 µM (inactive)	> 100 µM (inactive)	39.4 µM (inactive)
CCOC(=O)Cn1c(C(F)(F)F)nc2nc(Cl)c(Cl)nc21	47.8 µM (inactive)	3.12 µM (inactive)	20 µM (inactive)	3.8 µM (inactive)	37.2	19.7 µM (inactive)	58.9 µM (inactive)	32.5 µM (inactive)	26.6 µM (inactive)	38.4 µM (inactive)	50 µM (inactive)	27 µM (inactive)	50.2 µM (inactive)	38.5 µM (inactive)	34 µM (inactive)	49.1 µM (inactive)	49.4 µM (inactive)	24.2 µM (inactive)	33.3 µM (inactive)	3.44 µM (inactive)
C=C1CC/C=C(\C)CCC[C@H](C)[C@@H](O)[C@@H]2OC(=O)C(=C)[C@@H]2C[C@H]1O	17.1 µM (inactive)	3.94 µM (inactive)	1.14 µM (inactive)	4.57 µM (inactive)	3.42	2.42 µM (inactive)	14.9 µM (inactive)	3.62 µM (inactive)	2.13 µM (inactive)	5.96 µM (inactive)	4.05 µM (inactive)	12.5 µM (inactive)	8.3 µM (inactive)	4.71 µM (inactive)	8.26 µM (inactive)	29.8 µM (inactive)	5.93 µM (inactive)	4.83 µM (inactive)	8.24 µM (inactive)	6.22 µM (inactive)
O=C(/C=C/c1ccc([N+](=O)[O-])cc1)N1CCN(CCOC(c2ccc(F)cc2)c2ccc(F)cc2)CC1	12 µM (inactive)	18.2 µM (inactive)	7.01 µM (inactive)	18.4 µM (inactive)	19.1	9.68 µM (inactive)	> 100 µM (inactive)	9.84 µM (inactive)	3.6 µM (inactive)	> 100 µM (inactive)	> 100 µM (inactive)	> 100 µM (inactive)	4.72 µM (inactive)	8.87 µM (inactive)	> 100 µM (inactive)	> 100 µM (inactive)	4.04 µM (inactive)	7.21 µM (inactive)	4.74 µM (inactive)	14.3 µM (inactive)
COc1cc(-c2ccccc2)cn2c1nc1ccccc12	20 µM (inactive)	19.6 µM (inactive)	25.5 µM (inactive)	25.6 µM (inactive)	15.3	15.6 µM (inactive)	21.8 µM (inactive)	18.9 µM (inactive)	15.7 µM (inactive)	20.2 µM (inactive)	17.5 µM (inactive)	35 µM (inactive)	22.8 µM (inactive)	24.8 µM (inactive)	26.1 µM (inactive)	23.9 µM (inactive)	19.8 µM (inactive)	29.2 µM (inactive)	20.7 µM (inactive)	14.8 µM (inactive)
O=CC(I)=C(c1ccccc1)c1ccccc1	19.5 µM (inactive)	16.2 µM (inactive)	15.3 µM (inactive)	15.2 µM (inactive)	14.1	6.5 µM (inactive)	14.6 µM (inactive)	17 µM (inactive)	11.3 µM (inactive)	16.2 µM (inactive)	23.8 µM (inactive)	19.6 µM (inactive)	20 µM (inactive)	21.7 µM (inactive)	21.3 µM (inactive)	13.6 µM (inactive)	20.7 µM (inactive)	6.92 µM (inactive)	13.3 µM (inactive)	14.3 µM (inactive)
Cc1c2cc[n+](C)cc2c(C)c2c1sc1ccccc12	0.159 µM (active)	3.46 µM (inactive)	0.776 µM (active)	1.48 µM (inactive)	18.3	3.33 µM (inactive)	2.39 µM (inactive)	2.05 µM (inactive)	0.131 µM (active)	0.542 µM (active)	0.383 µM (active)	0.528 µM (active)	18.9 µM (inactive)	0.33 µM (active)	0.199 µM (active)	1.49 µM (inactive)	0.132 µM (active)	0.246 µM (active)	0.798 µM (active)	8.69 µM (inactive)
COc1ccc2c3c1O[C@H]1C(=O)C=CC4(n5[nH]c(=O)n(-c6ccccc6)c5=O)C(C2)N(C)CCC314 (some centres undefined)	> 100 µM (inactive)	> 100 µM (inactive)	> 100 µM (inactive)	> 100 µM (inactive)	> 100	> 100 µM (inactive)	> 100 µM (inactive)	> 100 µM (inactive)	> 100 µM (inactive)	> 100 µM (inactive)	> 100 µM (inactive)	> 100 µM (inactive)	> 100 µM (inactive)	> 100 µM (inactive)	> 100 µM (inactive)	> 100 µM (inactive)	> 100 µM (inactive)	> 100 µM (inactive)	> 100 µM (inactive)	> 100 µM (inactive)
O=C(O)c1cccc(OCCOc2cccc(C(=O)O)c2[N+](=O)[O-])c1[N+](=O)[O-]	> 100 µM (inactive)	> 100 µM (inactive)	> 100 µM (inactive)	> 100 µM (inactive)	> 100	> 100 µM (inactive)	> 100 µM (inactive)	> 100 µM (inactive)	> 100 µM (inactive)	> 100 µM (inactive)	> 100 µM (inactive)	> 100 µM (inactive)	> 100 µM (inactive)	> 100 µM (inactive)	> 100 µM (inactive)	> 100 µM (inactive)	> 100 µM (inactive)	> 100 µM (inactive)	> 100 µM (inactive)	> 100 µM (inactive)
O=c1[nH]c(=O)n(C2CC(O)C(CO)O2)cc1Oc1ccccc1 (centres undefined)	> 100 µM (inactive)	> 100 µM (inactive)	> 100 µM (inactive)	> 100 µM (inactive)	> 100	> 100 µM (inactive)	> 100 µM (inactive)	> 100 µM (inactive)	> 100 µM (inactive)	> 100 µM (inactive)	> 100 µM (inactive)	> 100 µM (inactive)	> 100 µM (inactive)	> 100 µM (inactive)	> 100 µM (inactive)	> 100 µM (inactive)	> 100 µM (inactive)	> 100 µM (inactive)	> 100 µM (inactive)	> 100 µM (inactive)
Cn1c(N)cc(=O)nc1N	> 100 µM (inactive)	> 100 µM (inactive)	> 100 µM (inactive)	> 100 µM (inactive)	> 100	> 100 µM (inactive)	> 100 µM (inactive)	> 100 µM (inactive)	> 100 µM (inactive)	> 100 µM (inactive)	> 100 µM (inactive)	> 100 µM (inactive)	> 100 µM (inactive)	> 100 µM (inactive)	> 100 µM (inactive)	> 100 µM (inactive)	> 100 µM (inactive)	> 100 µM (inactive)	> 100 µM (inactive)	> 100 µM (inactive)
O=C(/C(=C(/Br)I)c1ccccc1)c1ccccc1	26.9 µM (inactive)	38.5 µM (inactive)	5.56 µM (inactive)	14.3 µM (inactive)	25.1	28 µM (inactive)	25.5 µM (inactive)	28.8 µM (inactive)	15.2 µM (inactive)	14.5 µM (inactive)	19.3 µM (inactive)	50.4 µM (inactive)	16.8 µM (inactive)	23.5 µM (inactive)	22.1 µM (inactive)	38.5 µM (inactive)	17.8 µM (inactive)	27 µM (inactive)	22.6 µM (inactive)	22.7 µM (inactive)
COc1ccc2c(c1)/C(=C(\C(Cl)=C(Cl)Cl)[N+](=O)[O-])N2	> 100 µM (inactive)	90.6 µM (inactive)	31.1 µM (inactive)	> 100 µM (inactive)	> 100	> 100 µM (inactive)	> 100 µM (inactive)	51.2 µM (inactive)	24.2 µM (inactive)	88.9 µM (inactive)	22.3 µM (inactive)	87.7 µM (inactive)	79.8 µM (inactive)	92.5 µM (inactive)	70.3 µM (inactive)	> 100 µM (inactive)	> 100 µM (inactive)	11 µM (inactive)	67.3 µM (inactive)	> 100 µM (inactive)
CN(C)CCOc1ccc(/C(=C(/CCCl)c2ccccc2)c2ccccc2)cc1 [TOREMIFENE CITRATE]	16.3 µM (inactive)	15 µM (inactive)	6.1 µM (inactive)	17.7 µM (inactive)	14.7	5.13 µM (inactive)	16.4 µM (inactive)	17.4 µM (inactive)	18.7 µM (inactive)	17.9 µM (inactive)	19.1 µM (inactive)	17.5 µM (inactive)	13.7 µM (inactive)	17.7 µM (inactive)	17.4 µM (inactive)	–	16.7 µM (inactive)	3.23 µM (inactive)	11.6 µM (inactive)	16.7 µM (inactive)
